Key:
Type in all cases: functional, cell-based
Settings in all cases: Oocyte
[1] = target: Monocarboxylate transporter 8 (Rattus norvegicus) (UniProt Q8K1P8); test: TP_TRANSPORTER: uptake in Xenopus laevis oocytes
[2] = target: Monocarboxylate transporter 8 (Rattus norvegicus) (UniProt Q8K1P8); test: TP_TRANSPORTER: inhibition of 3,3',5-triiodothyronine uptake (3,3',5-triiodothyronine:10nM, Tyrosine: 100 uM) in Xenopus laevis oocytes; set-up: scale not given: the % may be the effect or the level left
[3] = target: Monocarboxylate transporter 8 (Rattus norvegicus) (UniProt Q8K1P8); test: TP_TRANSPORTER: inhibition of thyroxine uptake (thyroxine:10nM, Tyrosine: 100 uM) in Xenopus laevis oocytes; set-up: scale not given: the % may be the effect or the level left
[4] = target: Monocarboxylate transporter 8 (Rattus norvegicus) (UniProt Q8K1P8); test: TP_TRANSPORTER: inhibition of thyroxine uptake (thyroxine:10nM, Tryptophan: 100 uM) in Xenopus laevis oocytes; set-up: scale not given: the % may be the effect or the level left
[5] = target: Monocarboxylate transporter 8 (Rattus norvegicus) (UniProt Q8K1P8); test: TP_TRANSPORTER: inhibition of 3,3',5-triiodothyronine uptake (3,3',5-triiodothyronine:10nM, Tryptophan: 100 uM) in Xenopus laevis oocytes; set-up: scale not given: the % may be the effect or the level left
[6] = target: Monocarboxylate transporter 8 (Rattus norvegicus) (UniProt Q8K1P8); test: TP_TRANSPORTER: inhibition of 3,3',5-triiodothyronine uptake (3,3',5-triiodothyronine:10nM, D-thyroxine: 10 uM) in Xenopus laevis oocytes; set-up: scale not given: the % may be the effect or the level left
[7] = target: Monocarboxylate transporter 8 (Rattus norvegicus) (UniProt Q8K1P8); test: TP_TRANSPORTER: inhibition of thyroxine uptake (thyroxine:10nM, D-thyroxine: 10 uM) in Xenopus laevis oocytes; set-up: scale not given: the % may be the effect or the level left
[8] = target: Monocarboxylate transporter 8 (Rattus norvegicus) (UniProt Q8K1P8); test: TP_TRANSPORTER: inhibition of thyroxine uptake (thyroxine:10nM, bromosul-fophthalein: 100 uM) in Xenopus laevis oocytes; set-up: scale not given: the % may be the effect or the level left
[9] = target: Monocarboxylate transporter 8 (Rattus norvegicus) (UniProt Q8K1P8); test: TP_TRANSPORTER: inhibition of 3,3',5-triiodothyronine uptake (3,3',5-triiodothyronine:10nM, bromosul-fophthalein: 100 uM) in Xenopus laevis oocytes; set-up: scale not given: the % may be the effect or the level left
[10] = target: Monocarboxylate transporter 8 (Rattus norvegicus) (UniProt Q8K1P8); test: TP_TRANSPORTER: inhibition of 3,3',5-triiodothyronine uptake (3,3',5-triiodothyronine:10nM, N-bromoacetyl-3,3',5-triiodothyronine: 10 uM) in Xenopus laevis oocytes; set-up: scale not given: the % may be the effect or the level left
[11] = target: Monocarboxylate transporter 8 (Rattus norvegicus) (UniProt Q8K1P8); test: TP_TRANSPORTER: inhibition of thyroxine uptake (thyroxine:10nM, N-bromoacetyl-3,3',5-triiodothyronine: 10 uM) in Xenopus laevis oocytes; set-up: scale not given: the % may be the effect or the level left
[12] = target: Monocarboxylate transporter 8 (Rattus norvegicus) (UniProt Q8K1P8); test: TP_TRANSPORTER: inhibition of thyroxine uptake (thyroxine:10nM, L-thyroxine: 10 uM) in Xenopus laevis oocytes; set-up: scale not given: the % may be the effect or the level left
[13] = target: Monocarboxylate transporter 8 (Rattus norvegicus) (UniProt Q8K1P8); test: TP_TRANSPORTER: inhibition of 3,3',5-triiodothyronine uptake (3,3',5-triiodothyronine:10nM, L-thyroxine: 10 uM) in Xenopus laevis oocytes; set-up: scale not given: the % may be the effect or the level left
[14] = target: Monocarboxylate transporter 8 (Rattus norvegicus) (UniProt Q8K1P8); test: TP_TRANSPORTER: inhibition of 3,3',5-triiodothyronine uptake (3,3',5-triiodothyronine:10nM, D-3,3',5-triiodothyronine: 10 uM) in Xenopus laevis oocytes; set-up: scale not given: the % may be the effect or the level left
[15] = target: Monocarboxylate transporter 8 (Rattus norvegicus) (UniProt Q8K1P8); test: TP_TRANSPORTER: inhibition of thyroxine uptake (thyroxine:10nM, D-3,3',5-triiodothyronine: 10 uM) in Xenopus laevis oocytes; set-up: scale not given: the % may be the effect or the level left

Monocarboxylate transporter 8 (Rattus norvegicus), sequence (Q8K1P8 whole entry): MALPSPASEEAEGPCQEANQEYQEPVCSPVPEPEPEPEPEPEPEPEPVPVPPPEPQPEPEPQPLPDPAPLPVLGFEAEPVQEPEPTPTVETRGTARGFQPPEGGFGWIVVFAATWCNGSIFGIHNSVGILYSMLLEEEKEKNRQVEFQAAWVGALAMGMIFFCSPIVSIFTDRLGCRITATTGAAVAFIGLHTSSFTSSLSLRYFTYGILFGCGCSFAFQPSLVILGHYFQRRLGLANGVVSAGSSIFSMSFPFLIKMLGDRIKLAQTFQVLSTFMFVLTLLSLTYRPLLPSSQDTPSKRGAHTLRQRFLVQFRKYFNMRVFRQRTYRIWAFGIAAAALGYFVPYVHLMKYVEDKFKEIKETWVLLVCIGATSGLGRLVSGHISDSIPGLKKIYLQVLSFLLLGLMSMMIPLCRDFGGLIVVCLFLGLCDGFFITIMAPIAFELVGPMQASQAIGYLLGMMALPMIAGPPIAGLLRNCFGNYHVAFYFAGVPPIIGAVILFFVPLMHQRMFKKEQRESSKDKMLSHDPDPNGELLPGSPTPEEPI

N[C@@H](Cc1ccccc1)C(=O)O
Activity [1]: is not a substrate [-]

N[C@@H](Cc1ccc(O)cc1)C(=O)O
Activity [2]: 0%
Activity [3]: 37%
Activity [1]: is not a substrate [-]

N[C@@H](Cc1c[nH]c2ccccc12)C(=O)O
Activity [4]: 22%
Activity [1]: is not a substrate [-]
Activity [5]: 0%

N[C@@H](Cc1cc(I)c(Oc2cc(I)c(OS(=O)(=O)O)c(I)c2)c(I)c1)C(=O)O
Activity [1]: is not a substrate [-]

N[C@H](Cc1cc(I)c(Oc2cc(I)c(O)c(I)c2)c(I)c1)C(=O)O
Activity [6]: 21%
Activity [7]: 76%

NC(Cc1ccc(Oc2ccc(O)c(I)c2)c(I)c1)C(=O)O (stereo unspecified)
Activity [1]: substrate [+]

O=C1OC(c2ccc(O)c(S(=O)(=O)O)c2)(c2ccc(O)c(S(=O)(=O)O)c2)c2c(Br)c(Br)c(Br)c(Br)c21
Activity [8]: 94%
Activity [9]: 81%

O=C(O)[C@@H](Cc1cc(I)c(Oc2cc(I)c(O)c(I)c2)c(I)c1)NS(=O)(=O)O
Activity [1]: is not a substrate [-]

CC(C)C[C@H](N)C(=O)O
Activity [1]: is not a substrate [-]

O=C(CBr)N[C@@H](Cc1cc(I)c(Oc2ccc(O)c(I)c2)c(I)c1)C(=O)O
Activity [10]: 67%
Activity [11]: 90%

N[C@@H](Cc1cc(I)c(Oc2cc(I)c(O)c(I)c2)c(I)c1)C(=O)O
Activity [12]: 69%
Activity [13]: 26%

N[C@@H](Cc1ccc(Oc2cc(I)c(O)c(I)c2)c(I)c1)C(=O)O
Activity [14]: 24%
Activity [15]: 72%

Source: ChEMBL document CHEMBL2074163, “Identification of monocarboxylate transporter 8 as a specific thyroid hormone transporter” (J Biol Chem, 2003)
